Common to all, as to type: cell-based
Experiment [1] addresses T1, VIPR2 (Homo sapiens, UniProt P41587).
T1 sequence (P41587 24-438): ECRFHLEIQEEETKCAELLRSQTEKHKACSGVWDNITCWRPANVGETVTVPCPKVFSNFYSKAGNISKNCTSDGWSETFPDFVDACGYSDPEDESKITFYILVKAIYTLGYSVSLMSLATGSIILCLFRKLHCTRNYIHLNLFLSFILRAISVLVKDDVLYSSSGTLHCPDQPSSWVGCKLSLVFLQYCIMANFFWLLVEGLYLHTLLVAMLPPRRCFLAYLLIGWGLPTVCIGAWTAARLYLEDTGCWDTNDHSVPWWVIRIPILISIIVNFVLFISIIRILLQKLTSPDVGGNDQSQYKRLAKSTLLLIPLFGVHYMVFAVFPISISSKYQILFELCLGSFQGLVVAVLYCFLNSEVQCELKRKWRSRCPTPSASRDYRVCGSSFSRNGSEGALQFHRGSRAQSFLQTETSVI
Put plainly: BRET-based VIPR2 activation assay (CAMYEL cAMP sensor, CHO cells, VIP background). The text has this: In such a system, a detector cell is used which expresses both the VIPR2 receptor and “CAMYEL,” a YFP-Epac-RLuc8 BRET sensor construct. This construct includes Epac1, a guanine nucleotide exchange factor activated by direct binding of cAMP, fused with an enhanced YFP and Renilla luciferase 8 (Rluc8) allowing BRET upon cAMP-induced conformational changes (Jiang et al., 2007, J Biol Chem. 282:10576-10584). In response to elevated cAMP levels, there is a conformational change in Epac and therefore a change in the proximity of the fused chromophores, Rluc8 and YFP, resulting in measurable energy transfer. Coexpression of this BRET construct with VIPR2, optionally tagged at the N-terminus with a signal peptide and FLAG epitope (SF-VIPR2), for example in HEK293 cells, allows for detection of a VIPR2-specific response to cAMP. BRET readout may be calculated by quantifying the ratio of the light emitted by the acceptor, YFP (λ=525 nm), over the emission from the donor, RLuc8 (λ=485 nm). The proximity of the donor and acceptor, and therefore the BRET ratio, decreases in the presence of cAMP. In non-limiting specific embodiments, a stable cell line may be generated for this assay using the Flp-In T-Rex system in HEK293 cells. This system allows site-specific single copy integration of the gene of interest and control of expression levels using the Tet-repressor site making receptor expression tetracycline-inducible. For example, a CAMYEL and VIPR2 expressing line may be induced with 0.01 μg/ml tetracycline, then, 24 hours later cells may be collected and distributed into 96-well plates. After treatment with candidate inhibitor compound, for example at 5, 1 and 0.5 μM concentrations, cells may be incubated with the light emitting luciferin, coelenterazine H, for 5 min and incubated for 5 min with VIP at increasing concentrations, for example ranging from […] to 10 μM. The fluorescence and luminescence may then be quantified, for example using a PHERAstar (BMG) plate reader. […] Alternatively, analogous experiments may be performed using human cells harvested from a patient having a VIPR2 copy number variation, for example (but not by way of limitation) pluripotent stem cells prepared from such a patient and then transfected with a CAMYEL construct.
Numerous cellular assays were developed that were able to detect VIP responses absent of interference from non-specific vasopressin receptors using this CHO based system. VIPR2 is a Gs coupled receptor. Activation of VIPR2 by VIP leads to both an elevation in cAMP signaling and the recruitment of β-arrestin. A variety of combinations can be transiently transfect into these CHO cells for the assessment of cellular responses to VIP. For the BRET readout CHO cell lines expressing an YFP-Epac-RLuc8 (CAMYEL) BRET sensor were used to detect changes in cAMP. This construct includes Epac1, a guanine nucleotide exchange factor activated by direct binding of cAMP, fused to an enhanced YFP and RLuc8 allowing a change in BRET upon cAMP-induced conformational changes. The key for medium to high throughput screening assays is the use of stable cell lines allowing the continuous assaying of multiple compounds with the ability to generate large numbers of cells for rapid use. In these lines VIPR2 was expressed as one of the stable cell lines assays. This was introduced into the CHO-Flp-IN to allow the generation of isogenic stable cell lines expressing high levels of VIPR2 under control of the CMV promoter. This has been introduced into this line together with the CAMYEL construct previously described. This allows for detection of VIPR2-specific responses to cAMP. EYFP fluorescence and RLuc8 luminescence is quantified in the presence of 5 μM light-emitting luciferin, coelenterazine H, using a PHERAstar (BMG) plate reader. BRET is calculated by quantifying the ratio of the light emitted by the acceptor, YFP (λ=525 nm), over the emission from the donor, RLuc8 (λ=485 nm).
3. […]

The target in experiment [2] is T1, VIPR2. Briefly: Inhibition of VIP-induced β-arrestin recruitment (% Activity Arrestin). Also on record: expressed in transfected cells; host or cells: HEK293 cells transfected with VIPR2 in pCDNA3.1 (as described). The settings on record: Batch 1. Put shortly: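 Read-out is β-gal fragment complementation (luminescence) between ProLink-hVIPR2 and EA-β-arrestin2 in transiently transfected HEK293 cells. Cells rested overnight, then exposed to inhibitor 2 h at 37 °C before detection reagent (5 min–1 h, room temperature); values are % activity against VIP-driven recruitment.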

The target in experiment [3] is T1, VIPR2. Put plainly: Inhibition of VIP-induced cAMP elevation (% Activity cAMP). Details: expressed in transfected cells; host or cells: HEK293 cells transfected with VIPR2 in pCDNA3.1 (as described). As to conditions: Batch 1. A digest of the protocol: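 HEK293 cells stably transfected with human VIPR2 were incubated with inhibitor and VIP for 30 min, then cAMP was detected by HTRF after at least 1 h at room temperature. The 665/620 nm ratio ×10,000 was calculated.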

In experiment [4] the target is T1, VIPR2. Briefly: % Activity: inhibition of VIP-induced cAMP elevation and β-arrestin recruitment (Table 2). Also on record: expressed in transfected cells; host or cells: HEK293 cells transfected with VIPR2 in pCDNA3.1 (as described). A digest of the protocol:
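Recruitment of β-arrestin measured by β-gal fragment complementation luminescence in HEK293 cells co-expressing VIPR2-ProLink and β-arrestin2-EA after 2 h compound at 37° C. VIP-driven cAMP rise in stable hVIPR2 HEK293 cells measured by HTRF after 30 min with inhibitor and VIP.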

Where [5] appears, read: Table 3, read-out: IC50 (from BRET).

Read-outs that look alike come from different tables or passages of the source.

On to `O=C(N[C@H]1c2ccccc2C[C@H]1O)[C@H](Cc1ccccc1)C[C@H](O)CNS(=O)(=O)c1ccc(F)cc1` [Compound X105], for which the IC50 (in general, the midpoint of a concentration-inhibition curve) at VIPR2 [1] (setting [5]) turned out to be 6.03 µM.
In the case of `O=C(N[C@H]1c2ccccc2C[C@H]1O)[C@H](Cc1ccccc1)C[C@H](O)CNS(=O)(=O)c1ccc(Cl)cc1` [Compound X106], the concentration for half-maximal inhibition (IC50) at VIPR2 [1] (Table 1, read-out: IC50) came out at 0.28 µM; at VIPR2 [1] (setting [5]) it was 2.02 µM.
In the case of `CC(O)c1ccc(S(=O)(=O)NC[C@@H](O)C[C@@H](Cc2ccccc2)C(=O)N[C@H]2c3ccccc3C[C@H]2O)cc1` (stereo partly shown) [Compound X107], the IC50 at VIPR2 [1] (setting [5]) was found to be 40.6 µM.
Take `O=C(N[C@H]1c2ccccc2C[C@H]1O)[C@H](Cc1ccccc1)C[C@H](O)CNS(=O)(=O)c1ccc2c(c1)CCC2` [Compound X108]: at VIPR2 [1] (setting [5]), the half-maximal inhibitory concentration (IC50) was 10 µM.
As for `O=C(N[C@H]1c2ccccc2C[C@H]1O)[C@H](Cc1ccccc1)C[C@H](O)CNS(=O)(=O)c1ccc2c(c1)OCCO2` [Compound X109], the IC50 is 0.206 µM at VIPR2 [1] (Table 1, read-out: IC50) and 33.7 µM on VIPR2 [1] (setting [5]).
The like results for `O=C(N[C@H]1c2ccccc2C[C@H]1O)[C@H](Cc1ccccc1)C[C@H](O)CNS(=O)(=O)c1ccc2c(c1)OCO2` [Compound X110] were, in that order, 2.16 µM and 3.81 µM.
With `CC(C)c1cc(C(C)C)c(S(=O)(=O)NC[C@@H](O)C[C@@H](Cc2ccccc2)C(=O)N[C@H]2c3ccccc3C[C@H]2O)c(C(C)C)c1` [J], on VIPR2 [2], the inhibition – broadly, the change of the read-out against control, counted positive when it falls – at 0.5 µM worked out at 29.7%; the inhibition at 1 µM is 30.9%; the inhibition at 5 µM is 8.3%. Further, at VIPR2 [3], the inhibition at 0.5 µM stood at 19.5%, the inhibition at 1 µM amounted to 18.6% and the inhibition at 5 µM worked out at 90%. Besides, on VIPR2 [4], the “% Activity” value is reported as 49.15%.
On to `O=C(N[C@H]1c2ccccc2C[C@H]1O)[C@H](Cc1ccccc1)C[C@H](O)CNS(=O)(=O)c1cccc([N+](=O)[O-])c1` [L], for which, on VIPR2 [2], the inhibition at 0.5 µM stood at 24.2%, the inhibition at 1 µM worked out at 35.1% and the inhibition at 5 µM was 33.4%. For the same compound, at VIPR2 [3], the inhibition at 0.5 µM turned out to be 18.4%, the inhibition at 1 µM amounted to 15.2% and the inhibition at 5 µM worked out at 21.3%. In addition, the “% Activity” value on VIPR2 [4] is reported as 27.35%.
For the compound `O=C(NC[C@@H](O)C[C@@H](Cc1ccccc1)C(=O)N[C@H]1c2ccccc2C[C@H]1O)c1cccc([N+](=O)[O-])c1` [M], on VIPR2 [2], the inhibition at 0.5 µM was found to be 19.9%, the inhibition at 1 µM turned out to be 7.4% and the inhibition at 5 µM is -4%. Further, at VIPR2 [3], the inhibition at 0.5 µM was found to be 11.8%, the inhibition at 1 µM was found to be 11% and the inhibition at 5 µM stood at 13.5%. Moreover, the “% Activity” value on VIPR2 [4] was determined as 4.75%.
`Cc1ccc(S(=O)(=O)NC[C@@H](O)C[C@@H](Cc2ccccc2)C(=O)N[C@H]2c3ccccc3C[C@H]2O)c(C)c1` [N]: on VIPR2 [2], the inhibition at 0.5 µM is 2.8%, the inhibition at 1 µM was determined as 20.3% and the inhibition at 5 µM is 31.8%. Besides, on VIPR2 [3], the inhibition at 0.5 µM was 14.1%, the inhibition at 1 µM came to 10.9% and the inhibition at 5 µM was determined as 23.3%. On VIPR2 [4], the “% Activity” value was found to be 27.55%.
Consider `O=C(NC[C@@H](O)C[C@@H](Cc1ccccc1)C(=O)N[C@H]1c2ccccc2C[C@H]1O)c1cccc(CCl)c1` [O], for which, at VIPR2 [2], the inhibition at 0.5 µM is -8.1%, the inhibition at 1 µM was 5.7% and the inhibition at 5 µM is -10.3%. Besides, on VIPR2 [3], the inhibition at 0.5 µM is 0.5%, the inhibition at 1 µM was 2.3% and the inhibition at 5 µM came out at 15.1%. For the same compound, the “% Activity” value on VIPR2 [4] was 2.4%.
For `Cc1ccc([N+](=O)[O-])cc1S(=O)(=O)NC[C@@H](O)C[C@@H](Cc1ccccc1)C(=O)N[C@H]1c2ccccc2C[C@H]1O` [P], at VIPR2 [2], the inhibition at 0.5 µM was -12%, the inhibition at 1 µM was -3.8% and the inhibition at 5 µM was -0.6%. Further, at VIPR2 [3], the inhibition at 0.5 µM is 10.9%, the inhibition at 1 µM was 13.6% and the inhibition at 5 µM came to 18.3%. Besides, the “% Activity” value at VIPR2 [4] came out at 8.85%.
For `O=C(NC[C@@H](O)C[C@@H](Cc1ccccc1)C(=O)N[C@H]1c2ccccc2C[C@H]1O)c1cccc(Br)c1` [Q], on VIPR2 [2], the inhibition at 0.5 µM is -3.8%, the inhibition at 1 µM was 6.8% and the inhibition at 5 µM came to 5.2%. Moreover, on VIPR2 [3], the inhibition at 0.5 µM is 17.4%, the inhibition at 1 µM was found to be 18.5% and the inhibition at 5 µM came to 20.3%. For the same compound, the “% Activity” value on VIPR2 [4] amounted to 12.75%.
For the compound `O=C(N[C@H]1c2ccccc2C[C@H]1O)[C@H](Cc1ccccc1)C[C@H](O)CNS(=O)(=O)c1ccccc1C(F)(F)F` [R], on VIPR2 [2], the inhibition at 0.5 µM is 10.7%, the inhibition at 1 µM was determined as 24.8% and the inhibition at 5 µM amounted to 21%. In addition, at VIPR2 [3], the inhibition at 0.5 µM turned out to be 23%, the inhibition at 1 µM turned out to be 18.8% and the inhibition at 5 µM worked out at 24.7%. Moreover, at VIPR2 [4], the “% Activity” value was determined as 22.85%.
As to `COc1ccc(S(=O)(=O)NC[C@@H](O)C[C@@H](Cc2ccccc2)C(=O)N[C@H]2c3ccccc3C[C@H]2O)cc1OC` [S], on VIPR2 [2], the inhibition at 0.5 µM was 10.5%, the inhibition at 1 µM is 23.2% and the inhibition at 5 µM came to 32%. Also, at VIPR2 [3], the inhibition at 0.5 µM came out at 21.1%, the inhibition at 1 µM came out at 20.4% and the inhibition at 5 µM was determined as 28.2%. Besides, the “% Activity” value on VIPR2 [4] is reported as 30.1%.
In the case of `O=C(N[C@H]1c2ccccc2C[C@H]1O)[C@H](Cc1ccccc1)C[C@H](O)CNS(=O)(=O)c1ccccc1F` [T], at VIPR2 [2], the inhibition at 0.5 µM came to 5.3%, the inhibition at 1 µM worked out at 28.3% and the inhibition at 5 µM came to 52%. At VIPR2 [3], the inhibition at 0.5 µM was 28.6%, the inhibition at 1 µM is 22.3% and the inhibition at 5 µM came out at 28.3%. For the same compound, at VIPR2 [4], the “% Activity” value is recorded as 40.15%.

For the origin of these results see patent US20150239831A1, “INHIBITORS OF CENTRAL NERVOUS SYSTEM VASOACTIVE INHIBITORY PEPTIDE RECEPTOR 2” (The Trustees Of Columbia University In The City Of New York, priority 2012, published 2015).
